Test results: patent US11052072B2, “Pyrazolo[4,3-C] quinoline derivatives for inhibition of β-glucuronidase” (Kaohsiung Medical University, priority 2015, dated 2021)
“Also recorded” adds a separate entry of the source. Like-named read-outs stand apart in the source and are kept apart here.

Columns and labels:
[1] = tested on: TOP10 E. coli cells; assay: E. coli growth assay (OD600); assay type: cell-based; details: 100 μM; OD600 at 6 hour after treatment; TOP10 E. coli (FIG. 4)
Experimental: The pyrazolo[4,3-c]quinoline derivatives were examined for effects on the growth of E. coli. TOP10 E. coli cells were grown to an OD600 of 0.35 in LB medium and treated with each inhibitor. E. coli cell cultures were monitored by reading OD600 at 6 hour after treatment. The cell viability were compared to non-inhibitor control group and shown in % control.

[2] = target: T1, human liver-glucuronidase (hβG) (Homo sapiens, UniProt P08236); assay: Inhibition of purified recombinant hβG activity (pNPG substrate, OD420); assay type: biochemical; details: read-out: Percent activity of human liver-glucuronidase at 10 μM (%)
T1 sequence (P08236 23-651): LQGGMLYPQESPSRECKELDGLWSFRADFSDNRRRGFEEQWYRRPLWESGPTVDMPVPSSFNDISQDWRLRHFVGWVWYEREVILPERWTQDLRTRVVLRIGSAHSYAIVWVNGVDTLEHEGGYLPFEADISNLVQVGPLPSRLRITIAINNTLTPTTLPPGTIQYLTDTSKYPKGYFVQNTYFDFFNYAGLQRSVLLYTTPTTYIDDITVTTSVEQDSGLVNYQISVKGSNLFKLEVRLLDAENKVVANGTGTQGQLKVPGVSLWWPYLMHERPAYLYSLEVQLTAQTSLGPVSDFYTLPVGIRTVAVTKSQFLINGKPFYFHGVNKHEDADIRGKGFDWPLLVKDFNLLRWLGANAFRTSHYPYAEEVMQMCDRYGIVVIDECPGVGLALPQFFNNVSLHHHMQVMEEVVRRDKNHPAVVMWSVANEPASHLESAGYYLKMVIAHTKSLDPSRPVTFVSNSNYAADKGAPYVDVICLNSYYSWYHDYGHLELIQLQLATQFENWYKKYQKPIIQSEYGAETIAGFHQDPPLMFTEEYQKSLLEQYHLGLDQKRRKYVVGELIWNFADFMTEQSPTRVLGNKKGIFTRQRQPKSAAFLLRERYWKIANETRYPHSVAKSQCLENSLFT
Experimental: (§1) The pyrazolo[4,3-c]quinoline derivatives were examined for their inhibition against eβG or hβG activity. Purified recombinant eβG or hβG proteins were incubated with serial dilution of the inhibitors, respectively. The βG activity was determined by color development of a βG substrate, pNPG. The hydrolysis product of pNPG, PNP was measured by OD420.

[3] = target: E. coli β-glucuronidase (eβG) (Escherichia coli, UniProt P05804); assay: Inhibition of purified recombinant eβG activity (pNPG substrate, OD420); assay type: biochemical; details: for Inhibition efficacy of eβG activity compared with βG-Inh: FIG. 1; for remaining activity at 10 µM: read-out: Percent activity of E. coli-glucuronidase at 10 μM (%); for Selective inhibition of eβG versus hβG (in words): recombinant eβG and hβG, serial dilution of inhibitors (FIG. 1)
Experimental: as §1

[4] = target: T2, endogenous eβG activity (Escherichia coli, UniProt P05804); assay: Endogenous β-glucuronidase activity assay in BL21 E. coli cells; assay type: cell-based; details: at both low (10 μM) or high concentration (50 μM) (FIG. 2)
T2 construct: endogenous in cells; host or cells: BL21 E. coli
Experimental: The pyrazolo[4,3-c]quinoline derivatives were examined for their inhibition against endogenous eβG activity. This assay is similar with the in vitro assay. BL21 E. coli cells were grown to an OD600 of 0.35 in LB medium. E. coli were 4 times diluted and incubated with each inhibitor. The endogenous eβG activity was measured by detecting PNP as described.

[5] = tested on: CPT-11 induced diarrhea; assay: CPT-11 induced diarrhea in tumor-bearing mice; assay type: in vivo, Balb/cJ mice; details: 3 mg/kg/day oral with CPT-11 50 mg/kg/day i.p.; CT26 tumor-bearing mice (FIG. 6A)
Experimental: (§2) FIGS. 6A and B show the effects of 17 (TCH-3511) on diarrhea and antitumor activity of CPT-11. Mice were inoculated with CT26 cells on day −7. Either water or 17 (TCH-3511) 3 mg/kg/day was orally administrated per day throughout the experimental period (day 0 onward). Mice were given daily intraperitoneal either CPT-11 treatment (50 mg/kg/day) or saline staring on day 2. Diarrhea level and tumor size was scored every other day.
(§3) 17 (TCH-3511) was given to mice to test whether inhibition of intestinal βG by bacterial inhibitor 17 (TCH-3511) eliminates CPT-11-induced diarrhea and maintain the therapeutic efficacy in combination with CPT-11 in tumor-bearing mice. CT26 murine colon adenocarcinoma cells were s.c. implanted into Balb/cJ mice. After solid tumor formed, 17 (TCH-3511) (3 mg/kg/day) was provided orally along with intraperitoneal injection of CPT-11 (50 mg/kg/day). Signs of diarrhea were according to stool forms and the perianal staining of the anus.

[6] = tested on: intestinal βG activity; assay: In vivo image of intestinal β-glucuronidase activity (FDGlcU pro-probe); parameters: species or system Balb/cJ mice; details: mice; for Inhibition of intestinal βG activity (fluorescence signal in the intestine): oral 60 μg/200 μl per day for five days, FDGlcU on sixth day (FIG. 5A)
Experimental: 17 (TCH-3511) or 32 (TCH-3510) was examined for its inhibition against intestinal βG activity in mice by in vivo image of eβG activity. 5 (TCH-3562), 17 (TCH-3511) or 32 (TCH-3510) was dissolved in ddH2O. Healthy 6-10 week old female Balb/cJ mice were oral administrated with 5 (TCH-3562), 17 (TCH-3511), 32 (TCH-3510) or ddH2O per day (60 μg/200 μl) for five consecutive days. FDGlcU, a βG fluorescent pro-probe was oral feed at the sixth day. The βG activity was detected by in vivo optical imaging system.

[7] = tested on: DMH induced tumorigenesis in the intestine; assay: DMH induced tumorigenesis in the intestine; assay type: in vivo, C57BL/6J-APC^MIN/J mice
Experimental: Either water or 17 (TCH-3511) 3 mg/kg/day was orally administrated three times per week throughout the experimental period (8 week). Mice were given intraperitoneal DMH (30 mg/kg/week).
17 (TCH-3511) was given to C57BL/6J-APC^MIN/J mice to check whether prevent DMH-induced intestinal damage and tumorigenesis. 17 (TCH-3511) (3 mg/kg, 3 times/week) was provided orally along with intraperitoneal injection of DMH (30 mg/kg, once/week). After 8 weeks of treatment, mice were sacrificed and the tumor in the intestine was examined.

[8] = tested on: CT26 murine colon adenocarcinoma cells; assay: Anti-tumor efficacy of CPT-11 in CT26 tumor-bearing mice; assay type: in vivo, Balb/cJ mice; details: 3 mg/kg/day oral with CPT-11 50 mg/kg/day i.p.; CT26 tumors (FIG. 6B)
Experimental: as §2, §3

[9] = 10 μM, purified recombinant hβG, pNPG, means ± S.D. of at least three separate experiments

T2 sequence (P05804 whole entry): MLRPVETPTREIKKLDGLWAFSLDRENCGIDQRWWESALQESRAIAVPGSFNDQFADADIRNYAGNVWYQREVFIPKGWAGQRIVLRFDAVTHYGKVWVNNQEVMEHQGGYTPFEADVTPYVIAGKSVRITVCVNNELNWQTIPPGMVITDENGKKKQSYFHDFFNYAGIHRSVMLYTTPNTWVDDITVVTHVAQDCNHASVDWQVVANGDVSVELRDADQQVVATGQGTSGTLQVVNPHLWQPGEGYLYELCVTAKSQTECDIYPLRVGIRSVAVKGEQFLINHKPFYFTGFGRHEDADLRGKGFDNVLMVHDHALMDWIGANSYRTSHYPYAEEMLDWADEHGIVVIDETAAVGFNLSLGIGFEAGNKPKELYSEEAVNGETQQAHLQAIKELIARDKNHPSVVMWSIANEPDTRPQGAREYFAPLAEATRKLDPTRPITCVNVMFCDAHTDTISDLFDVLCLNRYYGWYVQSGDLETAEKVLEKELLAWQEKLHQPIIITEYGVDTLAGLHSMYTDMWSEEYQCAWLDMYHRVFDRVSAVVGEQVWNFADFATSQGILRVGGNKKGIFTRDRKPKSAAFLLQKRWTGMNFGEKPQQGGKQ
Sequence of E. coli β-glucuronidase (eβG) (P05804 whole entry): as above

Row | Structure (SMILES) | Effects on E. coli growth [1] | remaining activity at 10 µM [2, 9] [%] | Inhibition efficacy of eβG activity compared with βG-Inh [3] | remaining activity at 10 µM [3] [%] | Selective inhibition of eβG versus hβG (in words) [3] | Inhibition efficacy of endogenous eβG activity compared with βG-Inh [4] | melting point [°C] | Effect on CPT-11 induced diarrhea [5] | Inhibition of intestinal βG activity, comparison between compounds ([6]; in vivo optical imaging (FIG. 5B)) | Inhibition of intestinal βG activity (fluorescence signal in the intestine) ([6]; listed as 17 (TCH-3511)) | Number of tumors in the intestine ([7]; 3 mg/kg oral 3 times/week with DMH 30 mg/kg i.p. once/week, after 8 weeks (FIG. 7), DMH only group more than 26) | Effect on DMH-induced intestinal damage and tumorigenesis ([7]; 3 mg/kg oral 3 times/week with DMH 30 mg/kg/week i.p., 8 weeks (FIG. 7), listed as 17 (TCH-3511)) | Effect on anti-tumor efficacy of CPT-11 treatment [8] | Inhibition of intestinal βG activity (fluorescence signal in the intestine) [6] | remaining activity at 10 µM [2] [%]
1 | Cc1ccc(Nc2nc3ccccc3c3[nH]nc(N)c23)cc1 [Compound 5, 3-Amino-4-(4-methylphenylamino)-1H-pyrazolo[4,3-c]quinoline] | no effects on E. coli growth | 110 ± 2.12 | better inhibition efficacy of eβG activity than βG-Inh | 4.5 ± 0.71 | selectively inhibited eβG activity but not hβG | better inhibition efficacy of endogenous eβG activity than βG-Inh | 292 to 294 | – | – | – | – | – | – | – | –
2 | Nc1n[nH]c2c1c(Nc1ccc(F)cc1)nc1ccccc12 [Compound 17, 3-Amino-4-(4-fluorophenylamino)-1H-pyrazolo[4,3-c]quinoline] | no effects on E. coli growth | 99 ± 1.41 | better inhibition efficacy of eβG activity than βG-Inh | 5 ± 1 | selectively inhibited eβG activity but not hβG | better inhibition efficacy of endogenous eβG activity than βG-Inh | 266 to 268 | can reduce CPT-11 induced diarrhea | better than 32 (THC-3510) | significantly reduced the fluorescence signal in the intestine; also recorded: significantly inhibit intestinal βG activity | six | can reduce DMH-induced intestinal damage and prevent tumorigenesis | no effects on the anti-tumor efficacy of CPT-11 treatment | – | –
3 | COc1ccccc1Nc1nc2ccccc2c2[nH]nc(N)c12 [Compound 32, 3-Amino-4-(2-methoxyphenylamino)-1H-pyrazolo[4,3-c]quinoline] | no effects on E. coli growth | – | better inhibition efficacy of eβG activity than βG-Inh | 3.5 ± 0.71 | selectively inhibited eβG activity but not hβG | better inhibition efficacy of endogenous eβG activity than βG-Inh | 210 to 211 | – | – | – | – | – | – | significantly inhibit intestinal βG activity | 103 ± 1.41
